This is an account of results in US20240083903A1, “ARYL ETHER COMPOUNDS AS TEAD MODULATORS” (Merck Sharp& Dohme LLC, priority 2021, published 2024).

The test has as its system TEAD Reporter-MCF7 cell line. Nature of the test: YAP/TEAD cellular activity assay: inhibition of TEAD-Luc activity in TEAD Reporter-MCF7 cell line. The class given is cell-based, human. The following applies: Homo sapiens, MCF7, 24 h, TEAD Reporter-MCF7 cells, 24 hours incubation with compound, luciferase readout. As to the method:
YAP/TEAD Cellular Activity Assay
Quantitation of Compound Potency on the Inhibition of TEAD-Luc Activity in TEAD Reporter-MCF7 Cell Line.
The TEAD Reporter-MCF7 cell line containing the firefly luciferase gene under the control of TEAD responsive elements stably integrated into the human breast cancer cell line was purchased from BPS Bioscience (Cat #60618). The cells were cultured with complete culture medium ([…], 1 mM sodium pyruvate, 10% fetal bovine serum, 10 ng/mL insulin and 400 ug/mL G418 sulfate) prior to the assay. For the assay, the cells were harvested, resuspended in the complete culture medium without G418, and seeded into white solid bottom 384-well cell culture microplates in 25 uL with 10,000 cells per well. The plates were incubated at 37° C. in a CO2 incubator for 20-24 hours and the compounds were then transferred from Echo LDV plates directly into the 384-well white tissue culture plates with an Echo. The plates were incubated at 37° C. in a CO2 incubator for 24 hours and equal volume of ONE-Glo™ EX Luciferase reagent (Promega, Cat #E8150) was added. After mixing on a shaker at room temperature for 10 minutes, the luciferase activity was measured with an Envision. The percentage inhibition and EC50 values of compounds were calculated with Spotfire.
Required Materials • 1. TEAD reporter-MCF-7 Cells (BPS Bioscience, #60618) • 2. Complete Cell Culture Medium (without selection antibiotics) • EMEM 89% (ATCC, #30-2003) • FBS 10% (Hyclone, #SH30088.03) • 1% Non essential amino acids (Gibco, • 1 mM sodium pyruvate (Gibco, • Pen/Strep, 1% (Gibco, #15140-122) • 10 ng/mL insulin (Sigma, #10516) • 3. Complete Cell Culture Medium (with selection antibiotics) • EMEM 89% (ATCC, #30-2003) • F1% Non essential amino acids (Gibco, • 1 mM sodium pyruvate (Gibco, • BS 10% (Hyclone, #SH30088.03) • 10 ng/mL insulin (Sigma, #10516) • 400 ug/mL G418 sulfate (Agilent, #200049-21) • 4. Miscellaneous tissue culture equipment and reagents. • 5. White solid 384-well tissue culture plate (Greiner, Cat #781080) • 6. One Glo EX luciferase assay system (Promega, #E8150)
The following table tabulates the biological data disclosed for the current invention. The biological data was collected using the methodology described above. For each compound, TEAD-Luc EC50 values are listed in nanomolar (nM) concentration units.

The EC50 is the concentration that produces a half-maximal response. For the molecule `CNS(=O)(=O)c1ccc(Oc2ccc(C(F)(F)F)cc2)c(-c2cccc3cc[nH]c23)c1` [2-7, 3-(1H-indol-7-yl)-N-methyl-4-[4-(trifluoromethyl)phenoxy]benzene-1-sulfonamide], the EC50 was determined as 5620 nM.
In the case of `CNS(=O)(=O)c1ccc(Oc2ccc(C(F)(F)F)cc2)c(-c2ccc3c(c2)n(C)c(=O)n3C)c1` [2-8, 3-(1,3-dimethyl-2-oxo-2,3-dihydro-1H-benzimidazol-5-yl)-N-methyl-4-[4-(trifluoromethyl)phenoxy]benzene-1-sulfonamide], the EC50 stood at 198 nM.
Regarding `CNS(=O)(=O)c1ccc(Oc2ccc(C(F)(F)F)cc2)c(-c2ccnc3[nH]ccc23)c1` [2-9, N-methyl-3-(1H-pyrrolo[2,3-b]pyridin-4-yl)-4-[4-(trifluoromethyl)phenoxy]benzene-1-sulfonamide], the concentration giving a half-maximal response (EC50) worked out at 2180 nM.
Consider `CNS(=O)(=O)c1ccc(Oc2ccc(C(F)(F)F)cc2)c(-c2cnc3[nH]ccc3c2)c1` [2-10, N-methyl-3-(1H-pyrrolo[2,3-b]pyridin-5-yl)-4-[4-(trifluoromethyl)phenoxy]benzene-1-sulfonamide], for which the half-maximal effective concentration (EC50) is 2420 nM.
In the case of `CNS(=O)(=O)c1ccc(Oc2ccc(C(F)(F)F)cc2)c(-c2ccc3c(c2)C(=O)N(CC2CC2)C3)c1` [2-11, 3-[2-(cyclopropylmethyl)-3-oxo-2,3-dihydro-1H-isoindol-5-yl]-N-methyl-4-[4-(trifluoromethyl)phenoxy]benzene-1-sulfonamide], the concentration for a half-maximal effect (EC50) was 338 nM.
To `CNS(=O)(=O)c1ccc(Oc2ccc(C(F)(F)F)cc2)c(-c2ccc3ncn(C4CC4)c3c2)c1` [2-12, 3-(1-cyclopropyl-1H-benzimidazol-6-yl)-N-methyl-4-[4-(trifluoromethyl)phenoxy]benzene-1-sulfonamide] belongs 2860 nM; to `CNS(=O)(=O)c1ccc(Oc2ccc(C(F)(F)F)cc2)c(-c2cccc3nc(N)[nH]c23)c1` [2-13, 3-(2-amino-1H-benzimidazol-7-yl)-N-methyl-4-[4-(trifluoromethyl)phenoxy]benzene-1-sulfonamide], 3650 nM.
Take `CNS(=O)(=O)c1ccc(Oc2ccc(C(F)(F)F)cc2)c(-c2ccc3c(c2)OCO3)c1` [2-14, 3-(2H-1,3-benzodioxol-5-yl)-N-methyl-4-[4-(trifluoromethyl)phenoxy]benzene-1-sulfonamide]: the EC50 came out at 247 nM.
As for `CNS(=O)(=O)c1ccc(Oc2ccc(C(F)(F)F)cc2)c(-c2ccc3c(cnn3C)c2)c1` [2-15, N-methyl-3-(1-methyl-1H-indazol-5-yl)-4-[4-(trifluoromethyl)phenoxy]benzene-1-sulfonamide], the figure is 336 nM; as for `CNS(=O)(=O)c1ccc(Oc2ccc(C(F)(F)F)cc2)c(-c2cnn3c2CCCC3)c1` [2-16, N-methyl-3-(4,5,6,7-tetrahydropyrazolo[1,5-a]pyridin-3-yl)-4-[4-(trifluoromethyl)phenoxy]benzene-1-sulfonamide], 631 nM.
Take `CNS(=O)(=O)c1ccc(Oc2ccc(C(F)(F)F)cc2)c(-c2cnn3c2OCC(C)C3)c1` (centres unmarked) [2-17, N-methyl-3-(6-methyl-6,7-dihydro-5H-pyrazolo[5,1-b][1,3]oxazin-3-yl)-4-[4-(trifluoromethyl)phenoxy]benzene-1-sulfonamide]: the EC50 is 590 nM.
Turning to `CNS(=O)(=O)c1ccc(Oc2ccc(C(F)(F)F)cc2)c(-c2cnc3c(c2)OCCN3C)c1` [2-18, N-methyl-3-(4-methyl-3,4-dihydro-2H-pyrido[3,2-b][1,4]oxazin-7-yl)-4-[4-(trifluoromethyl)phenoxy]benzene-1-sulfonamide], the concentration for a half-maximal effect (EC50) came out at 606 nM.
Take `CNS(=O)(=O)c1ccc(Oc2ccc(C(F)(F)F)cc2)c(-c2cncc3ccccc23)c1` [2-19, 3-(isoquinolin-4-yl)-N-methyl-4-[4-(trifluoromethyl)phenoxy]benzene-1-sulfonamide]: the EC50 came out at 8860 nM.
In the case of `CNS(=O)(=O)c1ccc(Oc2ccc(C(F)(F)F)cc2)c(-c2cccc3cnccc23)c1` [2-20, 3-(isoquinolin-5-yl)-N-methyl-4-[4-(trifluoromethyl)phenoxy]benzene-1-sulfonamide], the EC50 is 4780 nM.
On to `CNS(=O)(=O)c1ccc(Oc2ccc(C(F)(F)F)cc2)c(-c2cc3ccc(C)nc3cc2OC)c1` [2-21, 3-(7-methoxy-2-methylquinolin-6-yl)-N-methyl-4-[4-(trifluoromethyl)phenoxy]benzene-1-sulfonamide], for which the EC50 stood at 9780 nM.
To `CNS(=O)(=O)c1ccc(Oc2ccc(C(F)(F)F)cc2)c(-c2ccc3c(c2)NC(=O)CO3)c1` [2-22, N-methyl-3-(3-oxo-3,4-dihydro-2H-1,4-benzoxazin-6-yl)-4-[4-(trifluoromethyl)phenoxy]benzene-1-sulfonamide] belongs 92.6 nM; to `CNS(=O)(=O)c1ccc(Oc2ccc(C(F)(F)F)cc2)c(-c2cc3c(cc2F)N(C)C(=O)CC3)c1` [2-23, 3-(7-fluoro-1-methyl-2-oxo-1,2,3,4-tetrahydroquinolin-6-yl)-N-methyl-4-[4-(trifluoromethyl)phenoxy]benzene-1-sulfonamide], 3640 nM; to `CNS(=O)(=O)c1ccc(Oc2ccc(C(F)(F)F)cc2)c(-c2ccc3cccnc3c2)c1` [2-24, N-methyl-3-(quinolin-7-yl)-4-[4-(trifluoromethyl)phenoxy]benzene-1-sulfonamide], 273 nM.
With `CNc1ncc2cc(-c3cc(S(=O)(=O)NC)ccc3Oc3ccc(C(F)(F)F)cc3)ccc2n1` [2-25, N-methyl-3-[2-(methylamino)quinazolin-6-yl]-4-[4-(trifluoromethyl)phenoxy]benzene-1-sulfonamide], the EC50 was 232 nM.
On to `CNS(=O)(=O)c1ccc(Oc2ccc(C(F)(F)F)cc2)c(-c2cccc3c2OCC(=O)N3)c1` [2-26, N-methyl-3-(3-oxo-3,4-dihydro-2H-1,4-benzoxazin-8-yl)-4-[4-(trifluoromethyl)phenoxy]benzene-1-sulfonamide], for which the 50% effective concentration (EC50) was determined as 3180 nM.
Turning to `CNS(=O)(=O)c1ccc(Oc2ccc(C(F)(F)F)cc2)c(-c2ccc3nccnc3c2)c1` [2-27, N-methyl-3-(quinoxalin-6-yl)-4-[4-(trifluoromethyl)phenoxy]benzene-1-sulfonamide], the EC50 came out at 410 nM.
To `CNS(=O)(=O)c1ccc(Oc2ccc(C(F)(F)F)cc2)c(-c2ccc3c(c2)OCC(=O)N3)c1` [2-28, N-methyl-3-(3-oxo-3,4-dihydro-2H-1,4-benzoxazin-7-yl)-4-[4-(trifluoromethyl)phenoxy]benzene-1-sulfonamide] belongs 5230 nM.
As for `CNS(=O)(=O)c1ccc(Oc2ccc(C(F)(F)F)cc2)c(-c2ccc3nc(OC)ccc3c2)c1` [2-29, 3-(2-methoxyquinolin-6-yl)-N-methyl-4-[4-(trifluoromethyl)phenoxy]benzene-1-sulfonamide], the figure is 89.7 nM; as for `CNS(=O)(=O)c1ccc(Oc2ccc(C(F)(F)F)cc2)c(-c2cnc3cccnc3c2)c1` [2-30, N-methyl-3-(1,5-naphthyridin-3-yl)-4-[4-(trifluoromethyl)phenoxy]benzene-1-sulfonamide], 675 nM.
On to `CNS(=O)(=O)c1ccc(Oc2ccc(C(F)(F)F)cc2)c(-c2ccc3nc(C)ccc3c2)c1` [2-31, N-methyl-3-(2-methylquinolin-6-yl)-4-[4-(trifluoromethyl)phenoxy]benzene-1-sulfonamide], for which the 50% effective concentration (EC50) was 663 nM.
In the case of `CNS(=O)(=O)c1ccc(Oc2ccc(C(F)(F)F)cc2)c(-c2ccc3c(=O)nc[nH]c3c2)c1` [2-32, N-methyl-3-(4-oxo-1,4-dihydroquinazolin-7-yl)-4-[4-(trifluoromethyl)phenoxy]benzene-1-sulfonamide], the EC50 was determined as 7570 nM.
As for `CNS(=O)(=O)c1ccc(Oc2ccc(C(F)F)cc2)c(-c2cnn3c2OCC3)c1` [2-33, 4-[4-(difluoromethyl)phenoxy]-3-(2,3-dihydropyrazolo[5,1-b] [1,3]oxazol-7-yl)-N-methylbenzene-1-sulfonamide], the figure is 356 nM; as for `CNS(=O)(=O)c1ccc(Oc2ccc(SC(F)(F)F)cc2)c(-c2cnn3c2CCC3)c1` [3-1, 3-(5,6-Dihydro-4H-pyrrolo[1,2-b]pyrazol-3-yl)-N-methyl-4-(4-((trifluoromethyl)thio)phenoxy)benzenesulfonamide], 447 nM.
As for `CNS(=O)(=O)c1ccc(Oc2cc(C(F)(F)F)cc(C(F)(F)F)c2)c(-c2cnn3c2CCC3)c1` [3-2, 4-[3,5-bis(trifluoromethyl)phenoxy]-3-(5,6-dihydro-4H-pyrrolo[1,2-b]pyrazol-3-yl)-N-methylbenzene-1-sulfonamide], the EC50 turned out to be 9140 nM.
